Patent US7345069B2, “Oxidative activation and episulfonium ion-mediated DNA alkylation-based anticancer” (Wisconsin Alumni Research Foundation, priority 2004, dated 2008)
Like-named read-outs stand apart in the source and are kept apart here.

Experiments:
[1] = In vitro oxidation of purified TG-25 on exposure to O2; assay type: physicochemical; settings: aqueous or methanol solution
Text: Three additional minor metabolites were also characterized from the ΔlnmE strain, and their structures were elucidated by the combination of MS, ^1H- and ^13C—NMR, and various 2D NMR spectroscopic methods as discussed above (compound 1, 2, 4, and 5 as shown in FIG. 6) Although these compounds were isolated in minor quantities and were apparently derived from TG-25 during the isolation, their structures were critical in helping to define the oxidative activation of TG-25 undergo rearrangement via an episulfornium ion intermediate (FIG. 6). It was clear by comparing the structure of TG-25 with those of 1 and 2 that an oxidation step was required for their conversion. Isolation of compound 4 shed light into how this oxidative rearrangement from TG-25 to 1 or 2 actually happens. Thus, as depicted in FIG. 6 TG-25 apparently was first oxidized by O2 to form the dimmer 4, activating the sulfhydryl group into a disulfide. Nucleophilic attack of the disulfide by the double bond could then be envisaged to form an episulfonium ion intermediate, in a mechanistic analogy to LNM, that subsequently could be trapped by H2O (leading the formation of 1) or methanol (leading to the formation of 2). This hypothesis was confirmed by re-producing the chemistry in vitro with purified TG-25.

LNCaP cells [2] = assay: Growth inhibition by DNA assay, LNCaP cells in androgen-depleted medium, untreated or pretreated with R1881 (with or without vitamin E succinate); assay type: cell-based
Description: To test whether TG-25 was activated under oxidative stress, LNCaP cells were grown in androgen-depleted medium in the presence of 0.01 nM and 1 nM androgen analog R1881 for 96 h. […] This concentration was also close to the range of concentration of the active androgen dihydrotestosterone found in normal human male and patients treated with androgen ablation therapy. The growth inhibitory effect of LNM and TG-25 against LNCaP cells either untreated or pretreated with R1881 as shown in FIG. 9 and FIG. 10, respectively. Under these treatment conditions, 0.01 nM R1881 stimulated growth by about 30% and 1 nM R1881 inhibited cell growth to about 40% of the control untreated cells. The data shown in FIG. 9 and FIG. 10 are normalized for the growth stimulatory or inhibitory effects of R1881 alone.
The effect of LNM and TG-25 against LNCaP cells pretreated with both R1881 and α-tocopherol succinate are shown in FIG. 11 and FIG. 12, respectively. All data for pretreated cells were normalized for the growth inhibition induced by α-tocopherol succinate plus R1881.

[3] = system: immortalized normal prostatic epithelial cells (E6); assay: Growth inhibition by DNA assay, immortalized normal prostatic epithelial cells (E6); assay type: cell-based
LNCaP cells [4] = settings: cited from earlier work; for cellular ROS level: 96 h
DU-145 cells = assay: Growth inhibition by DNA fluorescence assay, cells grown in 5% FBS, 72 h after drug treatment; assay type: cell-based; settings: DNA fluorescence 72 h after drug treatment
Description: The growth inhibitory effects of LNM against LNCaP and DU-145 cell lines grown in 5% FBS were determined by measuring DNA fluorescence 72 h after drug treatment. […] Growth inhibitory effects of LNM against LNCaP and DU-145 cells were expressed as percent of control untreated cells are shown in FIG. 7.

Question: With `C/C1=C\CC(=O)/C=C/C=C\c2csc(n2)[C@@H](C)NC(=O)C[C@@](S)(C(C)C(=O)O)CC1` (stereo partly drawn) [TG-25] as the compound, how does the “conversion upon exposure to O2” value [1] read?
Answer: rapidly converted to 1 or 2

Question: And the IC50 (LNCaP cells [2]; Homo sapiens, LNCaP cells pretreated with 1 nM androgen analog R1881, read-out: IC50, growth inhibition of LNCaP prostate cancer cells)?
Answer: 5 to 10 µM

Question: What about the “growth inhibitory effect after co-pretreatment with R1881 and vitamin E (α-tocopherol succinate)” value (LNCaP cells [2]; LNCaP cells pretreated with 1 nM R1881 plus α-tocopherol succinate, normalized for pretreatment alone) of the same compound?
Answer: completely reverses the growth inhibitory effect

Question: And the “growth inhibitory effect against cells pretreated with 0.01 nM R1881” value (LNCaP cells [2]; LNCaP cells, 0.01 nM R1881 for 96 h)?
Answer: no effect

Question: What about the “growth inhibitory effect against R1881 pretreated cells” value (LNCaP cells [2]; LNCaP cells, R1881 pretreated (high oxidative stress)) of the same compound?
Answer: markedly inhibited the growth

Question: And the “growth inhibitory effect against control untreated cells” value (LNCaP cells [2]; LNCaP cells, androgen-depleted medium, no R1881)?
Answer: no effect

Question: And the growth inhibitory effect ([3]; immortalized normal prostatic epithelial cells, up to μM concentration)?
Answer: little growth inhibitory effect even at μM concentration

Question: Which “growth stimulation by R1881 alone” value (LNCaP cells [2]; 0.01 nM R1881, 96 h, androgen-depleted medium) does the source give for `C[C@]1(O)CC[C@H]2[C@@H]3CCC4=CC(=O)CCC4=C3C=C[C@@]21C` [Compound R1881] here?
Answer: about 30%

Question: What about the “cell growth with R1881 alone” value (LNCaP cells [2]; 1 nM R1881, 96 h, androgen-depleted medium) of the same compound?
Answer: about 40 % of the control untreated cells

Question: What about the “cellular ROS level” value (LNCaP cells [4]; 0.01 nM R1881, LNCaP cells) of the same compound?
Answer: reduces the cellular ROS

Question: And the “cellular ROS level” value (LNCaP cells [4]; 1 nM R1881, LNCaP cells)?
Answer: increases cellular ROS level

Question: With `C/C1=C\[C@@H](O)C(=O)/C=C/C=C\c2csc(n2)[C@@H](C)NC(=O)C[C@@]2(CC1)[S+]([O-])SC(=O)[C@]2(C)O` (stereo partly drawn) [LNM, leinamycin] as the compound, how does the “growth inhibitory effect in androgen depleted medium compared with 5% FBS” value (LNCaP cells [2]; LNCaP cells) read?
Answer: more pronounced

Question: And the “influence of R1881 pretreatment on growth inhibition” value (LNCaP cells [2]; LNCaP cells pretreated with 0.01 nM or 1 nM R1881)?
Answer: not appreciably affected

Question: What about the “influence of α-tocopherol succinate on growth inhibition” value (LNCaP cells [2]; LNM alone or in combination with R1881, LNCaP cells) of the same compound?
Answer: no effect

Question: And the “sensitivity of DU-145 cells compared with LNCaP cells” value (DU-145 cells)?
Answer: slightly more sensitive to LNM

Question: And the IC50 ([3]; Epithelial cell, read-out: IC50, growth inhibition)?
Answer: < 0.0002 µM

Question: And the “growth inhibitory effect compared with the prostate cancer cell lines” value ([3]; immortalized normal prostatic epithelial cells vs LNCaP and DU-145)?
Answer: stronger growth inhibitory effect

Question: With `Cc1c(C)c2c(c(C)c1OC(=O)CCC(=O)O)CCC(C)(CCCC(C)CCCC(C)CCCC(C)C)O2` (stereo not drawn) [α-tocopherol (vitamin E) succinate] as the compound, how does the “effect on the increase in ROS level by 1 nM R1881 pretreatment” value (LNCaP cells [4]; co-treatment of LNCaP cells) read?
Answer: can be inhibited
